According to US7413853B2, “Modulation of metabolism of steroids and xenobiotics” (The Salk Institute for Biological Studies, priority 2001, dated 2008):
Entries after “also recorded” stand apart in the source; their conditions may differ. Where two headings read alike, the source gives them in different places.

How the values were obtained:
[1] = system: rat CYP3A23 gene cellular promoter
Procedure: The PCR-amplified sequences and target mutagenesis were confirmed by DNA sequencing.
(§1) All compounds were purchased from Sigma.
The above notion would predict: (1) The SXR/PXR response element is essential for the activation of CYP3A genes; and (2) The response elements of SXR and PXR are interchangeable. Therefore, mutagenesis analysis was performed on the promoter of the rat CYP3A23 gene to examine these predictions.

[2] = system: SXR; experiment: Activation of SXR in transfection-based assays; parameters: activation of SXR: dose or concentration left out as unconfirmed
Procedure: To characterize its response properties, a large variety of steroids, including intermediate and major products of known steroid biosynthetic pathways were tested.

[3] = target: T1, GR (Homo sapiens, UniProt P04150); experiment: Activity of corticosterone catabolites on GR; type: cell-based; details: reduced or hydroxylated corticosterone derivatives
T1 sequence (P04150 1-777): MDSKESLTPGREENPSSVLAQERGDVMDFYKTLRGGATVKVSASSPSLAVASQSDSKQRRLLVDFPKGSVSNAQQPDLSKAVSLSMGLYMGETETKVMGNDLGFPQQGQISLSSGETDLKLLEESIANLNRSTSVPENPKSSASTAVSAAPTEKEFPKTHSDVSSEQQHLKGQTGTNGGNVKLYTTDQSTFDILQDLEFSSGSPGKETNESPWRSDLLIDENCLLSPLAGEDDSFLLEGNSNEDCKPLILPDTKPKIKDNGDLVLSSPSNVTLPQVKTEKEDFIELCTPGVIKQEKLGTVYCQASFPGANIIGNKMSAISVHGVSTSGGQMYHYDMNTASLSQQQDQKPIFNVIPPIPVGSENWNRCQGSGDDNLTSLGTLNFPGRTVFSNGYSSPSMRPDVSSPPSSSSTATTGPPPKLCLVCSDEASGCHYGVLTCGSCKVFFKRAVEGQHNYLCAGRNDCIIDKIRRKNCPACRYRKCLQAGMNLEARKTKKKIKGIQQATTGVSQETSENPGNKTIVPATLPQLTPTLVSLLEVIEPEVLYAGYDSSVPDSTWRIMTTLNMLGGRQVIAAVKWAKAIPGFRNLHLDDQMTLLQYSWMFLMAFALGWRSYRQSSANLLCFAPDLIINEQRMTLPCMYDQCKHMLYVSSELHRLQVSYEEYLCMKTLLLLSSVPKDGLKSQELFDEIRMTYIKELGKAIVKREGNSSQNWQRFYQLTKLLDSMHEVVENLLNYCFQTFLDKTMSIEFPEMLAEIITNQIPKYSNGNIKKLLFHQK

[4] = target: T2, SXR (Homo sapiens, UniProt O75469); experiment: Activation of SXR by thiazolidinediones in hepatocyte cultures and transgenic animals
T2 sequence (O75469 1-434): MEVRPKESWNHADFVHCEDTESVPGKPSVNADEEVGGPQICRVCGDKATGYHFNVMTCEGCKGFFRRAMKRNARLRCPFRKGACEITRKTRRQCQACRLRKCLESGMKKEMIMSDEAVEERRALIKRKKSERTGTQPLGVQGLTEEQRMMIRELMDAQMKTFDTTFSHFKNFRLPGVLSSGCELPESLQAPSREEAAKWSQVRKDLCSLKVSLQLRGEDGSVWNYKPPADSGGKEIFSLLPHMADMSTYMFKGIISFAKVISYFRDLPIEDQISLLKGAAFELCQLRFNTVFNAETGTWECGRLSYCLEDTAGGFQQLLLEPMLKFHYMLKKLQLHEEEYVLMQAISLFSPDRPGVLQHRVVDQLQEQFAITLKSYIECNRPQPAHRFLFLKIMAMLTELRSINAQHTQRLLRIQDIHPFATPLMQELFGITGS
Procedure: as §1
The animals were allowed free access to food and water at all times. […] When necessary, mice were treated with a single intraperitoneal injection of DEX (50 mg/kg), PCN (40 mg/kg), or CTZ (50 mg/kg).

[5] = target: T3, CAR (Mus musculus, UniProt O35627); experiment: tk-UGT1A6/DR-3 luciferase reporter transfected into CV-1 cells with CAR expression vector; type: cell-based; details: tk-UGT1A6/DR-3-Luc
T3 construct: expressed in transfected cells; host or cells: monkey kidney CV-1 cells
T3 sequence (O35627 1-358): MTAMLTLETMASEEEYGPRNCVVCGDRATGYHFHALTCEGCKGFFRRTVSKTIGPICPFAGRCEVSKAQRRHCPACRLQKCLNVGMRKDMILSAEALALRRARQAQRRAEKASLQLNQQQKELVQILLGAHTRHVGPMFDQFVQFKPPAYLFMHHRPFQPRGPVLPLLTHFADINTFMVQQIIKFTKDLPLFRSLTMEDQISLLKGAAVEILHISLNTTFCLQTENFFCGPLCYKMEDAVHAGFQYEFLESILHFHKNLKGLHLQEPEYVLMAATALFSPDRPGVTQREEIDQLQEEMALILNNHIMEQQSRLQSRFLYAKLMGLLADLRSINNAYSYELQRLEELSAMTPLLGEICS
Source text: The reporter gene comprises a thymadine kinase (TK) linked to UGT1A6/DR-3 linked to a luciferace (LUC).
In an exemplary assay, a luciferase reporter gene containing the UGT1A6/DR-3 upstream of a minimal thymidine kinase (tk) promoter was constructed and transfected into monkey kidney CV-1 cells together with expression vectors for SXR, PXR, or CAR.
In FIG. 2, the tk-UGT1A6/DR3-Luc construct comprises a UGT inverted or direct repeat and/or a nuclear receptor binding site such that activation of the response element results in transcription of UGT. […] The response element can also comprise an inverse repeat of a suitable half site separated by a 6 nucleotide spacer, or an inverse repeat of a variant thereof, separated by a 6 nucleotide spacer.

[6] = target: T4, PXR (Mus musculus, UniProt O54915)
T4 sequence (O54915 1-431): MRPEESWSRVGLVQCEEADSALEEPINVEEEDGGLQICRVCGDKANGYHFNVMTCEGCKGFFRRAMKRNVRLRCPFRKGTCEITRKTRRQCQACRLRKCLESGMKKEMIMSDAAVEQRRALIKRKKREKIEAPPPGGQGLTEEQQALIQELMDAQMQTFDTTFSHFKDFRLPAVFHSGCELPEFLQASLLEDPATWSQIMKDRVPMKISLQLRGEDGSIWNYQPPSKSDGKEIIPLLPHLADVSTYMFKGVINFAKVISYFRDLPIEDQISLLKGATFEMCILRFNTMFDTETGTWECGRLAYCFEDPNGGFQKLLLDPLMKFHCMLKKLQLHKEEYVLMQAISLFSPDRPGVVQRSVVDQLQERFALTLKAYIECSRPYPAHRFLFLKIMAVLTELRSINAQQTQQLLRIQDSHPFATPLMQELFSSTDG

[7] = target: T4, PXR; experiment: Activation of mouse receptor PXR by the panel of compounds
[8] = clinical trials, 2510 patients; alanine aminotransferase level > three times the upper limit of normal; cited from earlier work
[9] = transfection-based assays, steroids tested

Cc1ccc2cc3c(ccc4ccccc43)c3c2c1CC3 [3MC, 3-methylcholanthrene]
activation of CYP3A23 cellular promoter reporter [1]: fail to activate or behave as poor activators

C[C@]12CCC(=O)C[C@@H]1CC[C@@H]1[C@@H]2[C@@H](O)C[C@]2(C)[C@@H](C(=O)CO)CC[C@@H]12 [5α]
activation of SXR by products of steroid catabolism [2]: effective SXR activators
activity on GR [3]: slightly active

C[C@]12CCC(=O)C[C@H]1CC[C@@H]1[C@@H]2[C@@H](O)C[C@]2(C)[C@@H](C(=O)CO)CC[C@@H]12 [5β]
activation of SXR by products of steroid catabolism [2]: effective SXR activators
activity on GR [3]: completely inactive

C[C@]12C[C@H](O)[C@H]3[C@@H](C[C@@H](O)C4=CC(=O)CC[C@@]43C)[C@@H]1CC[C@@H]2C(=O)CO [6β-hydroxy corticosterone]
activation of SXR by products of steroid catabolism [2]: virtually inactive; also recorded: virtual inactivity
activity on GR [3]: slightly active

CN(CCOc1ccc(CC2SC(=O)NC2=O)cc1)c1ccccn1 (stereo not drawn) [BRL, Rosiglitazone]
activation of SXR by TZDs ([4]; hepatocyte cultures and transgenic animals): fail to activate SXR

CC/C(=C(/CC)c1ccc(O)cc1)c1ccc(O)cc1 [DES, diethylstilbestrol]
activation of SXR by compounds known to induce CYP3A4 [2]: most potent activators

C[C@]12CC[C@H](O)CC1=CC[C@@H]1[C@@H]2CC[C@]2(C)C(=O)CC[C@@H]12 [DHEA, dehydroepiandrosterone]
SXR activation of DR-3, DR-4 and DR-5 elements [2]: intermediate group

Clc1cnc(Oc2ccc(Oc3ncc(Cl)cc3Cl)cc2)c(Cl)c1 [TCPOBOP, 1,4-bis[2-(3,5-dichloropyridyloxy)] benzene]
effect on CAR activation of UGT reporter [5]: potentiated

C[C@]12CCC(=O)C=C1CC[C@@H]1[C@@H]2[C@@H](O)C[C@]2(C=O)[C@@H](C(=O)CO)CC[C@@H]12 [aldosterone]
activation of SXR [2]: inactive
SXR activation of DR-3, DR-4 and DR-5 elements ([2]; series of transfections): little response

C[C@@]12CCC[C@H]1[C@@H]1CC[C@H]3C[C@@H](O)CC[C@]3(C)[C@H]1CC2 [androstanol]
effect on CAR activation of UGT reporter [5]: inhibited

C[C@]12C[C@H](O)[C@H]3[C@@H](CCC4=CC(=O)CC[C@@]43C)[C@@H]1CC[C@@H]2C(=O)CO [corticosterone]
activation of SXR by compounds known to induce CYP3A4 [2]: most potent activators
SXR activation of DR-3, DR-4 and DR-5 elements ([2]; series of transfections): among the best activators
activation of SXR [2, 9]: most potent and efficacious activator; also recorded: activated; also recorded: strongest known activator

C[C@]12CCC(=O)C=C1CC[C@@H]1[C@@H]2[C@@H](O)C[C@@]2(C)[C@H]1CC[C@]2(O)C(=O)CO [cortisol]
SXR activation of DR-3, DR-4 and DR-5 elements ([2]; series of transfections): little response

C[C@]12CCC(=O)C=C1CC[C@@H]1[C@@H]2C(=O)C[C@@]2(C)[C@H]1CC[C@]2(O)C(=O)CO [cortisone]
SXR activation of DR-3, DR-4 and DR-5 elements ([2]; series of transfections): intermediate group

O=c1oc2cc(O)ccc2c2oc3cc(O)ccc3c12 [coumestrol]
activation of SXR by compounds known to induce CYP3A4 [2]: most potent activators

C[C@]12CCC(=O)C[C@@H]1CC[C@@H]1[C@@H]2CC[C@]2(C)[C@@H](O)CC[C@@H]12 [dihydrotestosterone]
SXR activation of DR-3, DR-4 and DR-5 elements [2]: among the best activators
activation of SXR [2]: remarkably effective activators

C[C@]12CC[C@@H]3c4ccc(O)cc4CC[C@H]3[C@@H]1CC[C@@H]2O [estradiol, 17β-estradiol]
activation of SXR by compounds known to induce CYP3A4 [2]: most potent activators
SXR activation of DR-3, DR-4 and DR-5 elements ([2]; series of transfections): among the best activators
activation of SXR [2, 9]: remarkably effective activators
activation of PXR [6]: similarly activated
induction of CYP3A23 cellular promoter reporter [1]: significant induction

CCC1(c2ccccc2)C(=O)NC(=O)NC1=O [phenobarbital]
activation of CYP3A23 cellular promoter reporter [1]: fail to activate or behave as poor activators
induction of CYP3A23 cellular promoter reporter [1]: significant induction

CC(=O)[C@H]1CC[C@H]2[C@@H]3CC=C4C[C@@H](O)CC[C@]4(C)[C@H]3CC[C@]12C [pregnenolone]
SXR activation of DR-3, DR-4 and DR-5 elements ([2]; series of transfections): among the best activators
activation of CYP3A23 cellular promoter reporter [1]: fail to activate or behave as poor activators
induction of CYP3A23 cellular promoter reporter [1]: significant induction

CC(=O)[C@H]1CC[C@H]2[C@@H]3CCC4=CC(=O)CC[C@]4(C)[C@H]3CC[C@]12C [progesterone]
SXR activation of DR-3, DR-4 and DR-5 elements ([2]; series of transfections): among the best activators
activation of SXR [2, 9]: activated

C[C@]12CC[C@H]3[C@@H](CCC4=CC(=O)CC[C@@]43C)[C@@H]1CC[C@@H]2O [testosterone]
activation of SXR [2]: activated
activation of PXR [7]: similarly activated

Cc1c(C)c2c(c(C)c1O)CCC(C)(COc1ccc(CC3SC(=O)NC3=O)cc1)O2 (stereo not drawn) [troglitazone]
troglitazone-induced hepatotoxicity, share of patients [8]: 1.9%
activation of SXR by TZDs [4]: activate SXR

estrogen
activation of SXR [2, 9]: activated
